According to ChEMBL document CHEMBL1649119, “Daptomycin pharmacokinetics in adult oncology patients with neutropenic fever” (Antimicrob Agents Chemother, 2009):

Assays:
[1] = Half life in healthy human at 8 mg/kg, iv administered as 30 mins infusion every 24 hrs measured on day 1; format: ADME, organism-based; design: dose 8 mg/kg, route intravenous; conditions: in vivo
[2] = Clearance in healthy human subjects at 12 mg/kg, iv administered as 30 mins infusion every 24 hrs measured on day 4; format: ADME, organism-based; design: dose 12 mg/kg, route intravenous; conditions: in vivo
[3] = Clearance in old healthy human at 4 mg/kg, iv administered as single dose 30 mins infusion; format: ADME, organism-based; design: dose 4 mg/kg, route intravenous; conditions: in vivo
[4] = Cmax in adult human with hepatic impairment at 6 mg/kg, iv administered as single dose 30 mins infusion; format: ADME, organism-based; design: dose 6 mg/kg, route intravenous; conditions: in vivo
[5] = Renal clearance in nonobese human at 4 mg/kg, iv administered as single dose 30 mins infusion; format: ADME, organism-based, Kidney; design: dose 4 mg/kg, route intravenous; conditions: in vivo, read-out: CL_renal (converted)
[6] = AUC (0 to infinity) in healthy human subjects at 8 mg/kg, iv administered as 30 mins infusion every 24 hrs measured on day 4; format: ADME, organism-based; design: dose 8 mg/kg, route intravenous, time infinity; conditions: plasma
Homo sapiens [7] = test: Clearance in healthy human at 4 mg/kg, iv administered as single dose 30 mins infusion; format: ADME, organism-based; design: dose 4 mg/kg, route intravenous; conditions: in vivo, 0.5 h
[8] = Clearance in nonobese human subjects at 4 mg/kg, iv administered as single dose 30 mins infusion; format: ADME, organism-based; design: dose 4 mg/kg, route intravenous; conditions: in vivo
[9] = Clearance in healthy human at 8 mg/kg, iv administered as 30 mins infusion every 24 hrs measured on day 1; format: ADME, organism-based; design: dose 8 mg/kg, route intravenous; conditions: in vivo
[10] = Cmax in healthy human subjects at 10 mg/kg, iv administered as 30 mins infusion every 24 hrs measured on day 1; format: ADME, organism-based; design: dose 10 mg/kg, route intravenous; conditions: in vivo
[11] = Plasma concentration in young healthy human at 4 mg/kg, iv administered as single dose 30 mins infusion measured after 24 hrs; format: ADME, organism-based; design: dose 4 mg/kg, route intravenous
[12] = Unbound fraction in healthy human plasma at 8 mg/kg, iv administered as 30 mins infusion every 24 hrs measured on day 14; format: ADME, organism-based; design: dose 8 mg/kg, route intravenous
[13] = Mean residence time in adult human with hepatic impairment at 6 mg/kg, iv administered as single dose 30 mins infusion; format: ADME, organism-based; design: dose 6 mg/kg, route intravenous; conditions: in vivo
[14] = Clearance in healthy human subjects at 6 mg/kg, iv administered as 30 mins infusion every 24 hrs measured on days 1-3; format: ADME, organism-based; design: dose 6 mg/kg, route intravenous; conditions: in vivo
[15] = Half life in nonobese human at 4 mg/kg, iv administered as single dose 30 mins infusion; format: ADME, organism-based; design: dose 4 mg/kg, route intravenous; conditions: in vivo
[16] = Volume of distribution at steady state in cancer patient with neutropenic fever at 6 mg/kg, iv administered as 30 mins infusion every 24 hrs; format: ADME, organism-based; design: dose 6 mg/kg, route intravenous; conditions: human, in vivo, read-out: Vdss
[17] = Cmax in healthy human at 8 mg/kg, iv administered as 30 mins infusion every 24 hrs measured on day 7; format: ADME, organism-based; design: dose 8 mg/kg, route intravenous; conditions: in vivo
[18] = Volume of distribution at steady state in old healthy human at 4 mg/kg, iv administered as single dose 30 mins infusion; format: ADME, organism-based; design: dose 4 mg/kg, route intravenous; conditions: in vivo, read-out: Vdss
[19] = Apparent volume of distribution during terminal phase in healthy human subjects at 10 mg/kg, iv administered as 30 mins infusion every 24 hrs measured on day 4; format: ADME, organism-based; design: dose 10 mg/kg, route intravenous; conditions: in vivo
[20] = Apparent volume of distribution during terminal phase in healthy human subjects at 8 mg/kg, iv administered as 30 mins infusion every 24 hrs measured on day 1; format: ADME, organism-based; design: dose 8 mg/kg, route intravenous; conditions: in vivo
[21] = AUC (0 to infinity) in healthy human subjects at 10 mg/kg, iv administered as 30 mins infusion every 24 hrs measured on day 4; format: ADME, organism-based; design: time infinity, dose 10 mg/kg, route intravenous; conditions: plasma
[22] = Plasma concentration in morbidly obese adult human at 4 mg/kg, iv administered as single dose 30 mins infusion measured after 24 hrs; format: ADME, organism-based; design: dose 4 mg/kg, route intravenous
[23] = Half life in healthy human subjects at 8 mg/kg, iv administered as 30 mins infusion every 24 hrs measured on day 1; format: ADME, organism-based; design: dose 8 mg/kg, route intravenous; conditions: in vivo
[24] = Renal clearance in young healthy human at 4 mg/kg, iv administered as single dose 30 mins infusion; format: ADME, organism-based, Kidney; design: dose 4 mg/kg, route intravenous; conditions: in vivo, read-out: CL_renal (converted)
[25] = Cmax in healthy human at 8 mg/kg, iv administered as 30 mins infusion every 24 hrs measured on day 1; format: ADME, organism-based; design: dose 8 mg/kg, route intravenous; conditions: in vivo
[26] = Cmax in healthy human subjects at 8 mg/kg, iv administered as 30 mins infusion every 24 hrs measured on day 4; format: ADME, organism-based; design: dose 8 mg/kg, route intravenous; conditions: in vivo
[27] = Clearance in healthy human subjects at 8 mg/kg, iv administered as 30 mins infusion every 24 hrs measured on day 4; format: ADME, organism-based; design: dose 8 mg/kg, route intravenous; conditions: in vivo
[28] = Mean residence time in young healthy human at 4 mg/kg, iv administered as single dose 30 mins infusion; format: ADME, organism-based; design: dose 4 mg/kg, route intravenous; conditions: in vivo
Homo sapiens [29] = test: Unbound clearance in healthy human at 6 mg/kg, iv administered as 30 mins infusion every 24 hrs measured on day 1; format: ADME, organism-based; design: dose 6 mg/kg, route intravenous; conditions: in vivo

Q: Which results are given for `CCCCCCCCCC(=O)N[C@@H](Cc1c[nH]c2ccccc12)C(=O)N[C@H](CC(N)=O)C(=O)N[C@@H](CC(=O)O)C(=O)N[C@@H]1C(=O)NCC(=O)N[C@@H](CCCN)C(=O)N[C@@H](CC(=O)O)C(=O)N[C@H](C)C(=O)N[C@@H](CC(=O)O)C(=O)NCC(=O)N[C@H](CO)C(=O)N[C@@H]([C@H](C)CC(=O)O)C(=O)N[C@@H](CC(=O)c2ccccc2N)C(=O)O[C@@H]1C`?
A: half-life [1]: 9.6 h; clearance [2]: 0.15 mL/min/kg; clearance [3]: 0.164 mL/min/kg; Cmax [4]: 114 µg/mL; CL renal at 0.5 h [5]: 0.098 mL/min/kg; AUC(0-inf) [6]: 858 µg·h/mL; CL (Homo sapiens [7]): 9.84 mL/min; clearance [8]: 0.2 mL/min/kg; clearance [9]: 0.12 mL/min/kg; Cmax [10]: 130 µg/mL; concentration at 24 h [11]: < 3.3 µg/mL; fraction unbound at 14 day [12]: 0.09; MRT [13]: 12 h; clearance [14]: 0.158 mL/min/kg; half-life [15]: 8.04 h; Vd [16]: 0.18 L/kg; Cmax [17]: 133 µg/mL; Vd [18]: 0.15 L/kg; Vd [19]: 0.0983 L/kg; Vd [20]: 0.103 L/kg; AUC(0-inf) [21]: 1040 µg·h/mL; concentration at 24 h [22]: 5.88 µg/mL; half-life [23]: 7.3 h; CL renal at 0.5 h [24]: 0.12 mL/min/kg; Cmax [25]: 116 µg/mL; Cmax [26]: 123 µg/mL; clearance [27]: 0.15 mL/min/kg; MRT [28]: 9.05 h; CL (Homo sapiens [29]): 0.992 mL/min/kg
